From PubChem BioAssay AID334 (DTP/NCI, 2004)
“And” between values parts separate entries of the source, which are not always exact repeats. Identical values can stand only once. Toxic doses and inconclusive results are not listed.

Tested on: CD2F1 mice, intracerebral P388 leukemia, median survival T/C%
Assay: NCI In Vivo Anticancer Drug Screen. Data for tumor model P388 Leukemia (intracerebral) in CD2F1 (CDF1) mice
Settings: endpoint: median survival time, higher = longer survival
Method: The antitumor activity of compounds was measured in mice bearing transplantable tumors. Survival or tumor size were measured and the results are expressed as the measurement made in the treated group (T) divided by the measurement made in the vehicle treated control group (C). The tumor model used in this assay is P388 Leukemia (intracerebral) in CD2F1 (CDF1) mice

[1] = dose: 12.5 mg/kg/injection, schedule: Q01DX009 (ip), vehicle: saline with Tween-80
[2] = dose: 25.0 mg/kg/injection, schedule: Q01DX009 (ip), vehicle: saline with Tween-80
[3] = dose: 50.0 mg/kg/injection, schedule: Q01DX009 (ip), vehicle: saline with Tween-80
[4] = dose: 100.0 mg/kg/injection, schedule: Q01DX009 (ip), vehicle: saline with Tween-80
[5] = dose: 8.0 mg/kg/injection, schedule: Q01DX009 (ip), vehicle: Klucel (hydroxypropylcellulose) (HPC)
[6] = dose: 16.0 mg/kg/injection, schedule: Q01DX009 (ip), vehicle: Klucel (hydroxypropylcellulose) (HPC)
[7] = dose: 32.0 mg/kg/injection, schedule: Q01DX009 (ip), vehicle: Klucel (hydroxypropylcellulose) (HPC)
[8] = dose: 64.0 mg/kg/injection, schedule: Q01DX009 (ip), vehicle: Klucel (hydroxypropylcellulose) (HPC)
[9] = dose: 128.0 mg/kg/injection, schedule: Q01DX009 (ip), vehicle: Klucel (hydroxypropylcellulose) (HPC)
[10] = dose: 256.0 mg/kg/injection, schedule: Q01DX009 (ip), vehicle: Klucel (hydroxypropylcellulose) (HPC)
[11] = dose: 512.0 mg/kg/injection, schedule: Q01DX009 (ip), vehicle: Klucel (hydroxypropylcellulose) (HPC)
[12] = dose: 8.0 mg/kg/injection, schedule: Q01DX009 (ip), vehicle: saline
[13] = dose: 12.0 mg/kg/injection, schedule: Q01DX009 (ip), vehicle: saline
[14] = dose: 18.0 mg/kg/injection, schedule: Q01DX009 (ip), vehicle: saline
[15] = dose: 27.0 mg/kg/injection, schedule: Q01DX009 (ip), vehicle: saline

For CN=S(=O)(OCCCCCOS(=O)(=NC)c1ccccc1)c1ccccc1 (stereo unspecified), the T/C (dose: 6.25 mg/kg/injection, schedule: Q01DX009 (ip), vehicle: saline with Tween-80) was 107 % of control, the T/C [1] was 100 % of control and the T/C [2] was 101 % of control. The T/C [3] was 102 % of control and the T/C [4] was 102 % of control.

In the case of CCCCCCCCCCCCCC(=O)OC12CC(C)C3(O)C(C=C(CO)C(O)C4(O)C(=O)C(C)=CC43)C1C2(C)C (stereo unspecified), the T/C (dose: 62.5 micrograms/kg/injection, schedule: Q01DX009 (ip), vehicle: acetone) is reported as 103 % of control, the T/C (dose: 125.0 micrograms/kg/injection, schedule: Q01DX009 (ip), vehicle: acetone) is reported as 98 % of control and the T/C (dose: 250.0 micrograms/kg/injection, schedule: Q01DX009 (ip), vehicle: acetone) is reported as 88 % of control. The T/C (dose: 500.0 micrograms/kg/injection, schedule: Q01DX009 (ip), vehicle: acetone) was 94 % of control.

In the case of C[C@]12C=CC(=O)C=C1CC[C@@H]1[C@@H]2C(=O)C[C@@]2(C)[C@H]1CC[C@]2(O)C(=O)CO, the T/C [5] is reported as 95 % of control and 99 % of control, the T/C [6] is reported as 100 % of control and 104 % of control and the T/C [7] is reported as 98 % of control and 102 % of control. For the same compound, the T/C [8] was 99 % of control and 104 % of control, the T/C [9] was 95 % of control and 102 % of control and the T/C [10] was 102 % of control and 104 % of control. The T/C [11] was 95 % of control and 99 % of control.

For CC(C)=CCC1=C(O)c2ccccc2C(=O)C1=O, the T/C (dose: 32.0 mg/kg/injection, schedule: Q01DX005 (ip), vehicle: Klucel (hydroxypropylcellulose) (HPC)) was 104 % of control, the T/C (dose: 64.0 mg/kg/injection, schedule: Q01DX005 (ip), vehicle: Klucel (hydroxypropylcellulose) (HPC)) was 104 % of control and the T/C (dose: 128.0 mg/kg/injection, schedule: Q01DX005 (ip), vehicle: Klucel (hydroxypropylcellulose) (HPC)) was 95 % of control. For the same compound, the T/C (dose: 256.0 mg/kg/injection, schedule: Q01DX005 (ip), vehicle: Klucel (hydroxypropylcellulose) (HPC)) was 92 % of control.

For CC1(C)N=C(N)N=C(N)N1c1ccc(OCCOc2ccc(S(=O)(=O)F)cc2)c(Cl)c1, the T/C (dose: 12.5 mg/kg/injection, schedule: Q04DX003 (ip), vehicle: saline) was 116 % of control, the T/C (dose: 25.0 mg/kg/injection, schedule: Q04DX003 (ip), vehicle: saline) was 100 % of control and the T/C (dose: 50.0 mg/kg/injection, schedule: Q04DX003 (ip), vehicle: saline) was 94 % of control.

With c1ccc([C@H]2CN3CCSC3=N2)cc1 the T/C (dose: 5.0 mg/kg/injection, schedule: Q01DX009 (ip), vehicle: saline) was 113 % of control and 101 % of control and 102 % of control, the T/C (dose: 10.0 mg/kg/injection, schedule: Q01DX005 (ip), vehicle: saline) was 105 % of control and 107 % of control and the T/C (dose: 10.0 mg/kg/injection, schedule: Q01DX009 (ip), vehicle: saline) was 97 % of control and 100 % of control and 106 % of control. The T/C (dose: 20.0 mg/kg/injection, schedule: Q01DX005 (ip), vehicle: saline) was 98 % of control and 102 % of control, the T/C (dose: 20.0 mg/kg/injection, schedule: Q01DX009 (ip), vehicle: saline) was 113 % of control and 92 % of control and 103 % of control and the T/C (dose: 40.0 mg/kg/injection, schedule: Q01DX005 (ip), vehicle: saline) was 97 % of control.

For CCC(=O)O[C@H]1CC[C@H]2[C@@H]3CC[C@H]4CC(=O)[C@H](C)C[C@]4(C)[C@H]3CC[C@]12C, the T/C [5] was 121 % of control and 105 % of control, the T/C (dose: 8.0 mg/kg/injection, schedule: Q01DX009 (ip), vehicle: saline with Tween-80) was 100 % of control and 106 % of control and the T/C [6] was 94 % of control and 103 % of control. For the same compound, the T/C (dose: 16.0 mg/kg/injection, schedule: Q01DX009 (ip), vehicle: saline with Tween-80) was 100 % of control and 106 % of control, the T/C [7] was 123 % of control and 98 % of control and the T/C (dose: 32.0 mg/kg/injection, schedule: Q01DX009 (ip), vehicle: saline with Tween-80) was 97 % of control and 100 % of control. For the same compound, the T/C [8] was 123 % of control and 100 % of control, the T/C (dose: 64.0 mg/kg/injection, schedule: Q01DX009 (ip), vehicle: saline with Tween-80) was 116 % of control and 91 % of control and the T/C [9] was 120 % of control and 102 % of control. The T/C (dose: 128.0 mg/kg/injection, schedule: Q01DX009 (ip), vehicle: saline with Tween-80) was 95 % of control and 106 % of control, the T/C [10] was 114 % of control and 94 % of control and the T/C (dose: 256.0 mg/kg/injection, schedule: Q01DX009 (ip), vehicle: saline with Tween-80) was 100 % of control and 109 % of control. For the same compound, the T/C [11] was 111 % of control and the T/C (dose: 512.0 mg/kg/injection, schedule: Q01DX009 (ip), vehicle: saline with Tween-80) was 91 % of control and 106 % of control.

In the case of COc1cc(NC(=O)CN(CCCl)CCCl)cc(OC)c1OC, the T/C [1] is reported as 113 % of control and 102 % of control, the T/C [2] is reported as 104 % of control and 107 % of control and the T/C [3] is reported as 114 % of control and 118 % of control. For the same compound, the T/C [4] was 114 % of control and the T/C (dose: 200.0 mg/kg/injection, schedule: Q01DX009 (ip), vehicle: saline with Tween-80) was 87 % of control.

For CC1(C)N=C(N)N=C(N)N1c1ccc(CCCCc2ccc(Cl)c(S(=O)(=O)F)c2)c(Cl)c1, the T/C [12] was 105 % of control, the T/C [13] was 122 % of control and the T/C [14] was 116 % of control. For the same compound, the T/C [15] was 88 % of control.

Cc1cnc(/C=N\NC(N)=S)c2cccc(N)c12 was tested, and the T/C [1] was 99 % of control, the T/C [2] was 102 % of control and the T/C [3] was 104 % of control. For the same compound, the T/C [4] was 98 % of control.

With CN(C)c1nc(N(C)C)nc(N(C)C)n1 the T/C (dose: 100.0 mg/kg/injection, schedule: Q01DX005 (ip), vehicle: saline with Tween-80) was 104 % of control, the T/C (dose: 100.0 mg/kg/injection, schedule: Q01DX005 (ip), vehicle: suspension in saline) was 100 % of control and the T/C (dose: 200.0 mg/kg/injection, schedule: Q01DX005 (ip), vehicle: saline with Tween-80) was 111 % of control. For the same compound, the T/C (dose: 200.0 mg/kg/injection, schedule: Q01DX005 (ip), vehicle: suspension in saline) was 107 % of control, the T/C (dose: 400.0 mg/kg/injection, schedule: Q01DX005 (ip), vehicle: saline with Tween-80) was 111 % of control and the T/C (dose: 400.0 mg/kg/injection, schedule: Q01DX005 (ip), vehicle: suspension in saline) was 89 % of control.

In the case of O=C1c2c(O)ccc(O)c2C(=O)c2c(NCCNCCO)ccc(NCCNCCO)c21, the T/C (dose: 0.5 mg/kg/injection, schedule: Q01DX009 (ip), vehicle: saline with Tween-80) is reported as 100 % of control, the T/C (dose: 1.0 mg/kg/injection, schedule: Q01DX009 (ip), vehicle: saline with Tween-80) is reported as 105 % of control and the T/C (dose: 2.0 mg/kg/injection, schedule: Q01DX009 (ip), vehicle: saline with Tween-80) is reported as 106 % of control.

With CS(C)=O the T/C (dose: 1000.0 mg/kg/injection, schedule: Q01DX005 (ip), vehicle: saline) was 104 % of control and 107 % of control, the T/C (dose: 2000.0 mg/kg/injection, schedule: Q01DX005 (ip), vehicle: saline) was 100 % of control and 104 % of control and the T/C (dose: 4000.0 mg/kg/injection, schedule: Q01DX005 (ip), vehicle: saline) was 100 % of control and 105 % of control. The T/C (dose: 8000.0 mg/kg/injection, schedule: Q01DX005 (ip), vehicle: saline) was 105 % of control and 108 % of control.

For CC1(C)N=C(N)N=C(N)N1c1ccc(CCCCc2cccc(S(=O)(=O)F)c2)c(Cl)c1, the T/C [12] was 94 % of control, the T/C [13] was 116 % of control and the T/C [14] was 105 % of control. For the same compound, the T/C [15] was 88 % of control.

In the case of O=C1C=C(N2CC2)C(=O)C=C1N1CC1, the T/C (dose: 0.12 mg/kg/injection, schedule: Q01DX009 (ip), vehicle: saline) is reported as 104 % of control and 105 % of control and 106 % of control, the T/C (dose: 0.25 mg/kg/injection, schedule: Q01DX009 (ip), vehicle: saline) is reported as 100 % of control and 101 % of control and 105 % of control and the T/C (dose: 0.5 mg/kg/injection, schedule: Q01DX009 (ip), vehicle: saline) is reported as 105 % of control and 107 % of control and 111 % of control. For the same compound, the T/C (dose: 1.0 mg/kg/injection, schedule: Q01DX009 (ip), vehicle: saline) was 92 % of control and 93 % of control and 100 % of control.

In the case of O=P1(N(CCCl)CCCl)NCCCO1 (stereo unspecified), the T/C (dose: 265.0 mg/kg/injection, schedule: Q01DX001 (ip), vehicle: saline) is reported as 163 % of control.

CC1(C)N=C(N)N=C(N)N1c1ccc(OCC(=O)N2CCOCC2)c(Cl)c1 was tested, and the T/C (dose: 25.0 mg/kg/injection, schedule: Q01DX009 (ip), vehicle: saline) was 88 % of control, the T/C (dose: 50.0 mg/kg/injection, schedule: Q01DX009 (ip), vehicle: saline) was 111 % of control and the T/C (dose: 100.0 mg/kg/injection, schedule: Q01DX009 (ip), vehicle: saline) was 100 % of control.
